Blank lines part the entries; values can stand above or below the compound they belong to.
Assays:
Type in all cases: functional, cell membranes, Membrane vesicle
[1] = molecular target: MRP1 (Multidrug resistance-associated protein 1) (Homo sapiens, UniProt P33527); assay: TP_TRANSPORTER: inhibition of EA-GS uptake (EA-GS: 0.2 uM, GA1: 10 uM, in the presence of GSH) in membrane vesicles from MRP1-expressing DTY 168 yeast cells; design: scale not given: the % may be the effect or the level left; conditions: probe EA-GS (0.2 uM), read-out: Activity
[2] = molecular target: T1, Multidrug resistance-associated protein 1 (Homo sapiens, UniProt P33527); assay: TP_TRANSPORTER: inhibition of EA-GS uptake (EA-GS: 0.2 uM,PGA2: 10 uM, in the presence of GSH) in membrane vesicles from MRP1-expressing DTY 168 yeast cells; design: scale not given: the % may be the effect or the level left; conditions: dty 168, 10 µM
[3] = molecular target: T1, Multidrug resistance-associated protein 1; assay: TP_TRANSPORTER: uptake in membrane vesicles from MRP1-expressing DTY 168 yeast cells

T1 sequence (P33527 whole entry): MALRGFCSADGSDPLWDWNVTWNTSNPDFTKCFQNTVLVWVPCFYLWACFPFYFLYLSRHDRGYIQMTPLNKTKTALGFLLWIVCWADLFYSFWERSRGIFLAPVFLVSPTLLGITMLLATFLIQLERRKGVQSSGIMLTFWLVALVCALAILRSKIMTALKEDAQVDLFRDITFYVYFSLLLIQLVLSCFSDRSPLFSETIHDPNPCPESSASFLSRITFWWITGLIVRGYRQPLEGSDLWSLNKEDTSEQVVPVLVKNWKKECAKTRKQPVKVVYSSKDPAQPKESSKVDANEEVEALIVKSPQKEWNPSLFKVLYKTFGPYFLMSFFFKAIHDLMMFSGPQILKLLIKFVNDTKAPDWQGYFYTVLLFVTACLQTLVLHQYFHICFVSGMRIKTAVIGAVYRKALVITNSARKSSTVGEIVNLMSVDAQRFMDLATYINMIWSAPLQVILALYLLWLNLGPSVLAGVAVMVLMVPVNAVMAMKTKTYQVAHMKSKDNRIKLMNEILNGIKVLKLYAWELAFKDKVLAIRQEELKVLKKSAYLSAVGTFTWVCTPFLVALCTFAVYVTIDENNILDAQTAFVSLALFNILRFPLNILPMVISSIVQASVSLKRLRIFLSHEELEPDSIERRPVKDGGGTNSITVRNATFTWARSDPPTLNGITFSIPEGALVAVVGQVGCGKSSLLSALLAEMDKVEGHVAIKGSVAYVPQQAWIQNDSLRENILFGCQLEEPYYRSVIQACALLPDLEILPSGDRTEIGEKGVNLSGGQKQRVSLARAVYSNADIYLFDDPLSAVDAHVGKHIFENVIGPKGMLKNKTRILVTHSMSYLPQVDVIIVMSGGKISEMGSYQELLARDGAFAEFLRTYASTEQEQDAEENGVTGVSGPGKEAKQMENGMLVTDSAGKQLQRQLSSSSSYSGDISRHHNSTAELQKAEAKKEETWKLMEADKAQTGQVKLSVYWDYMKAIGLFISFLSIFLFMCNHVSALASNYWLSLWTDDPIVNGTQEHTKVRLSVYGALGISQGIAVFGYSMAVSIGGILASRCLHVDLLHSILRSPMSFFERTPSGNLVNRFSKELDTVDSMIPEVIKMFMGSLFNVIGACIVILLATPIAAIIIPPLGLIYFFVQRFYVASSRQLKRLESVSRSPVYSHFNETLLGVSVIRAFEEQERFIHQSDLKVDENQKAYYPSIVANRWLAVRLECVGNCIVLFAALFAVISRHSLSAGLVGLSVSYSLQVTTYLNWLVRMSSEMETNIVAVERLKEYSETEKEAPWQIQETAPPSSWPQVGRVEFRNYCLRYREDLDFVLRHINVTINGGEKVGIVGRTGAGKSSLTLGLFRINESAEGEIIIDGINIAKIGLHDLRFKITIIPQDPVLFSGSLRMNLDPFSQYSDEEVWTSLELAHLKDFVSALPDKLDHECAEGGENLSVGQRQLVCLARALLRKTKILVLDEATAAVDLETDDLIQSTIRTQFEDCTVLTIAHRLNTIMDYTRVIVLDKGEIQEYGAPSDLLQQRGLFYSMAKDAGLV
Chain of MRP1 (Multidrug resistance-associated protein 1) (P33527 whole entry): as above

activity at 10 µM [1]: 15%
Compound: CCCCC[C@H](O)/C=C/[C@H]1C=CC(=O)[C@@H]1CCCCCCC(=O)O [PROSTAGLANDIN A1]

Activity [2]: 9%
Compound: CCCCC[C@H](O)/C=C/[C@H]1C=CC(=O)[C@@H]1C/C=C\CCCC(=O)O [PROSTAGLANDIN A2]

Km [3]: substrate [Km=0.8-1uM]
Compound: CCCCC[C@H](O)/C=C/[C@H]1C(SC[C@@H](NC(=O)CC[C@@H](N)C(=O)O)C(=O)NCC(=O)O)CC(=O)[C@H]1C/C=C\CCCC(=O)O (stereo partly drawn)

Reference: ChEMBL document CHEMBL2074377, “Transport of glutathione prostaglandin A conjugates by the multidrug resistance protein 1” (FEBS Lett, 1997)
